The Ki is a dissociation constant, usually derived from enzyme kinetics or from competition with a known ligand.

What all share (assay): Ray2010 Assay 74
Experiment [1] has as its target T1, 5-hydroxytryptamine receptor 3A (Homo sapiens, UniProt P46098).
T1 sequence (P46098 whole entry): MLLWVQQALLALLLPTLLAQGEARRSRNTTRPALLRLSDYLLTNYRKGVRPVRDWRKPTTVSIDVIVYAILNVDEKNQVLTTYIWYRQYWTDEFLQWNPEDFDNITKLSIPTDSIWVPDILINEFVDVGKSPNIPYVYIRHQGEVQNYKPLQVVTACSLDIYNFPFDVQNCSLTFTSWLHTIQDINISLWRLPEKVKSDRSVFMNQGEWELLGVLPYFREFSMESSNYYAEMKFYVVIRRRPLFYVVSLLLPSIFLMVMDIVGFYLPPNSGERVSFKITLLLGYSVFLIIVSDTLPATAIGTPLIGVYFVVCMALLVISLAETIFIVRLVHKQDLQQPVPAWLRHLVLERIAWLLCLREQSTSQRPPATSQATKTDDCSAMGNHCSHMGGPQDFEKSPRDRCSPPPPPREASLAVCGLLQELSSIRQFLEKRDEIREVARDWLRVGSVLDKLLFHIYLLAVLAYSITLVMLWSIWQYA
The source says:
(§1) Table S2 shows raw Ki data for the current study combined with data collected from the literature for the ten additional compounds.

Experiment [2] addresses 5-hydroxytryptamine receptor 5A (Homo sapiens, UniProt P47898).
Source text: as §1

Experiment [3] addresses Cannabinoid receptor 1 (Homo sapiens, UniProt P21554).
Source text: as §1

Experiment [4] has as its target Cannabinoid receptor 2 (Homo sapiens, UniProt P34972).
Source text: as §1

For experiment [5], the target named is D(1B) dopamine receptor (Homo sapiens, UniProt P21918).
Source text: as §1

For experiment [6], the target named is T2, Gamma-aminobutyric acid receptor subunit alpha-1/Adenosine receptor A1 (Homo sapiens, UniProt P14867+P30542).
T2 sequence (P30542 whole entry): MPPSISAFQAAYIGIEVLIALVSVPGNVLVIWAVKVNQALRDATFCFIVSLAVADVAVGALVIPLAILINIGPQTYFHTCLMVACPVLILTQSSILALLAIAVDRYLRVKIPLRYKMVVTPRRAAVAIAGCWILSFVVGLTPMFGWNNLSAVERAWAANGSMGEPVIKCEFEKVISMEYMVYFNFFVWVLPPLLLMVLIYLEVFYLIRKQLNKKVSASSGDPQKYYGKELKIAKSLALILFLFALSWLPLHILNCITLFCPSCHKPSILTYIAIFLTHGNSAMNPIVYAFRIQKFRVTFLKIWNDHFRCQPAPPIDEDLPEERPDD
T2 sequence (P14867 whole entry): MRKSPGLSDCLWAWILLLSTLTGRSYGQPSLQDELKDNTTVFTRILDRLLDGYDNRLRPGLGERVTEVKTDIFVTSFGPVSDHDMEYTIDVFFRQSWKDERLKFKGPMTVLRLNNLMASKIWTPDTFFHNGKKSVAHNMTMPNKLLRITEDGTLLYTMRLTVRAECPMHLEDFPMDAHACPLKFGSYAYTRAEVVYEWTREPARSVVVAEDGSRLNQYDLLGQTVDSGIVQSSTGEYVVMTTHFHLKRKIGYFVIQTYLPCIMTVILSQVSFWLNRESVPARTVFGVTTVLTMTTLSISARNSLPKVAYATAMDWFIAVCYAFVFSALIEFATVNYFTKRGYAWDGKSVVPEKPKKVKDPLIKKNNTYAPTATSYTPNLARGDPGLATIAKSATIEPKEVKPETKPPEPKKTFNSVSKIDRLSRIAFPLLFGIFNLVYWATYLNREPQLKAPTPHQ
Source text: as §1

Experiment [7] concerns the target Kappa-type opioid receptor (Homo sapiens, UniProt P41145).
Source text: as §1

In experiment [8] the target is T3, Muscarinic acetylcholine receptor M4 (Homo sapiens, UniProt P08173).
T3 sequence (P08173 whole entry): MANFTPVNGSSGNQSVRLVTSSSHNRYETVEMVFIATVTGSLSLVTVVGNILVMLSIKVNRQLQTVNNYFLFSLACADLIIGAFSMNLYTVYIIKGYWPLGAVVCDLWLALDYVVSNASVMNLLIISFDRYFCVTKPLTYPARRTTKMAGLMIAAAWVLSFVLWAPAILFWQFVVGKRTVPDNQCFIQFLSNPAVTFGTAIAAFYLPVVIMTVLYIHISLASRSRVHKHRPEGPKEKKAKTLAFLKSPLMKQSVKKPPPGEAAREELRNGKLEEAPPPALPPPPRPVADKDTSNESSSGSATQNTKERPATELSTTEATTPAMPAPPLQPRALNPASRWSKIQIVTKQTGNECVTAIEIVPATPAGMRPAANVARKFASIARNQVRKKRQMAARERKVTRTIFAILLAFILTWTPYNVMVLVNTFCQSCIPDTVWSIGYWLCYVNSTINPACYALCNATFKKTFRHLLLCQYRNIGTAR
Source text: as §1

In experiment [9] the target is T4, Muscarinic acetylcholine receptor M5 (Homo sapiens, UniProt P08912).
T4 sequence (P08912 whole entry): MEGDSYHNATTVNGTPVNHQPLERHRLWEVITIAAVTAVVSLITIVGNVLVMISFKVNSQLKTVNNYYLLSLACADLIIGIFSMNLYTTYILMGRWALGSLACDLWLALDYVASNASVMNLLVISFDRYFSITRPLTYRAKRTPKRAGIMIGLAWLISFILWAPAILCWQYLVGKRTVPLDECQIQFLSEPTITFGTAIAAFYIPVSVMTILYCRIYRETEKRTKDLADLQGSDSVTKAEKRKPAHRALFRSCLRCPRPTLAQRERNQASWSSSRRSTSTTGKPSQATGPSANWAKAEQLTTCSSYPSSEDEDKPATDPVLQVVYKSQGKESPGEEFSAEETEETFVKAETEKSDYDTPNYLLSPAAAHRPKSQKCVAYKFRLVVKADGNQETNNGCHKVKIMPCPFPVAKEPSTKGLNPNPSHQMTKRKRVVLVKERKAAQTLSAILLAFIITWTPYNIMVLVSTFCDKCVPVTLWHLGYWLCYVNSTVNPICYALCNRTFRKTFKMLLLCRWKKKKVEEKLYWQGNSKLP
Source text: as §1

Experiment [10] has as its target Nischarin (Homo sapiens, UniProt Q9Y2I1).
Source text: as §1

Experiment [11] has as its target Voltage-dependent calcium channel subunit alpha-2/delta-1 (Homo sapiens, UniProt P54289).
Source text: as §1

The target of experiment [12] is T5, 5-hydroxytryptamine receptor 1A (Homo sapiens, UniProt P08908).
T5 sequence (P08908 whole entry): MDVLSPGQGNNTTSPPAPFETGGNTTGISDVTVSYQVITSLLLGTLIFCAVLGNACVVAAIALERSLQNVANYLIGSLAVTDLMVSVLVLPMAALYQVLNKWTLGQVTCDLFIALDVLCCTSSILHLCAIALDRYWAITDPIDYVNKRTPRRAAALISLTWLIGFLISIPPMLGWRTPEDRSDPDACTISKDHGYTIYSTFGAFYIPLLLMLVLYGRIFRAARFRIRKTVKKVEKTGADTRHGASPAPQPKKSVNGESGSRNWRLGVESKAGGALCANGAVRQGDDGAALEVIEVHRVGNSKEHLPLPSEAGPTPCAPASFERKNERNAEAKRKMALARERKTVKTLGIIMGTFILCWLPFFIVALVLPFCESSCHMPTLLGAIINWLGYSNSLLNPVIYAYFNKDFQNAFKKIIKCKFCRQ
Source text: as §1

Experiment [13] concerns the target 5-hydroxytryptamine receptor 1B (Homo sapiens, UniProt P28222).
Source text: as §1

Experiment [14] has as its target 5-hydroxytryptamine receptor 1E (Homo sapiens, UniProt P28566).
Source text: as §1

In experiment [15] the target is 5-hydroxytryptamine receptor 2A (Homo sapiens, UniProt P28223).
Source text: as §1

Experiment [16] concerns the target 5-hydroxytryptamine receptor 2B (Homo sapiens, UniProt P41595).
Source text: as §1

For experiment [17], the target named is 5-hydroxytryptamine receptor 6 (Homo sapiens, UniProt P50406).
Source text: as §1

Experiment [18] addresses T6, Alpha-1A adrenergic receptor (Homo sapiens, UniProt P35348).
T6 sequence (P35348 whole entry): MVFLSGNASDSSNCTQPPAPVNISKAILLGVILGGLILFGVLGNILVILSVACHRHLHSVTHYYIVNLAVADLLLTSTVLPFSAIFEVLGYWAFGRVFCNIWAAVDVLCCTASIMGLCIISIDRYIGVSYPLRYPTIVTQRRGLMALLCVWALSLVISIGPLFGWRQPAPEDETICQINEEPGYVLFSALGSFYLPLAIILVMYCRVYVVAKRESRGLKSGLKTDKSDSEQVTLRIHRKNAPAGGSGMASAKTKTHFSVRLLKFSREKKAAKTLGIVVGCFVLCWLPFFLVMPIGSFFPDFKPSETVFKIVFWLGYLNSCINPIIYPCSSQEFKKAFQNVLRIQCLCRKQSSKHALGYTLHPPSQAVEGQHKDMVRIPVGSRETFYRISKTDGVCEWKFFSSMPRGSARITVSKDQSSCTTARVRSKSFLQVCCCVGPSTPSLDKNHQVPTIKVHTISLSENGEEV
Source text: as §1

The target of experiment [19] is D(1A) dopamine receptor (Homo sapiens, UniProt P21728).
Source text: as §1

In experiment [20] the target is D(2) dopamine receptor (Homo sapiens, UniProt P14416).
Source text: as §1

Experiment [21] has as its target Histamine H1 receptor (Homo sapiens, UniProt P35367).
Source text: as §1

5-hydroxytryptamine receptor 5A, sequence (P47898 whole entry): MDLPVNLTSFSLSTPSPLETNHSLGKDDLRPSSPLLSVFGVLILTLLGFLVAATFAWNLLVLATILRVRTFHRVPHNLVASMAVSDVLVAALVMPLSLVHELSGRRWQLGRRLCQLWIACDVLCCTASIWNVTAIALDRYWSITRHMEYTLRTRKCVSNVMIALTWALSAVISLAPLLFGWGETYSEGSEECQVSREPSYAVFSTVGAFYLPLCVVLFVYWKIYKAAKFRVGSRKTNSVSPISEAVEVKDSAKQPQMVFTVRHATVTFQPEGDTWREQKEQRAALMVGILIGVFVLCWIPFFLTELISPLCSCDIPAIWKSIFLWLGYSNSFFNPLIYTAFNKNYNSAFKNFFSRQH
Nischarin, sequence (Q9Y2I1 whole entry): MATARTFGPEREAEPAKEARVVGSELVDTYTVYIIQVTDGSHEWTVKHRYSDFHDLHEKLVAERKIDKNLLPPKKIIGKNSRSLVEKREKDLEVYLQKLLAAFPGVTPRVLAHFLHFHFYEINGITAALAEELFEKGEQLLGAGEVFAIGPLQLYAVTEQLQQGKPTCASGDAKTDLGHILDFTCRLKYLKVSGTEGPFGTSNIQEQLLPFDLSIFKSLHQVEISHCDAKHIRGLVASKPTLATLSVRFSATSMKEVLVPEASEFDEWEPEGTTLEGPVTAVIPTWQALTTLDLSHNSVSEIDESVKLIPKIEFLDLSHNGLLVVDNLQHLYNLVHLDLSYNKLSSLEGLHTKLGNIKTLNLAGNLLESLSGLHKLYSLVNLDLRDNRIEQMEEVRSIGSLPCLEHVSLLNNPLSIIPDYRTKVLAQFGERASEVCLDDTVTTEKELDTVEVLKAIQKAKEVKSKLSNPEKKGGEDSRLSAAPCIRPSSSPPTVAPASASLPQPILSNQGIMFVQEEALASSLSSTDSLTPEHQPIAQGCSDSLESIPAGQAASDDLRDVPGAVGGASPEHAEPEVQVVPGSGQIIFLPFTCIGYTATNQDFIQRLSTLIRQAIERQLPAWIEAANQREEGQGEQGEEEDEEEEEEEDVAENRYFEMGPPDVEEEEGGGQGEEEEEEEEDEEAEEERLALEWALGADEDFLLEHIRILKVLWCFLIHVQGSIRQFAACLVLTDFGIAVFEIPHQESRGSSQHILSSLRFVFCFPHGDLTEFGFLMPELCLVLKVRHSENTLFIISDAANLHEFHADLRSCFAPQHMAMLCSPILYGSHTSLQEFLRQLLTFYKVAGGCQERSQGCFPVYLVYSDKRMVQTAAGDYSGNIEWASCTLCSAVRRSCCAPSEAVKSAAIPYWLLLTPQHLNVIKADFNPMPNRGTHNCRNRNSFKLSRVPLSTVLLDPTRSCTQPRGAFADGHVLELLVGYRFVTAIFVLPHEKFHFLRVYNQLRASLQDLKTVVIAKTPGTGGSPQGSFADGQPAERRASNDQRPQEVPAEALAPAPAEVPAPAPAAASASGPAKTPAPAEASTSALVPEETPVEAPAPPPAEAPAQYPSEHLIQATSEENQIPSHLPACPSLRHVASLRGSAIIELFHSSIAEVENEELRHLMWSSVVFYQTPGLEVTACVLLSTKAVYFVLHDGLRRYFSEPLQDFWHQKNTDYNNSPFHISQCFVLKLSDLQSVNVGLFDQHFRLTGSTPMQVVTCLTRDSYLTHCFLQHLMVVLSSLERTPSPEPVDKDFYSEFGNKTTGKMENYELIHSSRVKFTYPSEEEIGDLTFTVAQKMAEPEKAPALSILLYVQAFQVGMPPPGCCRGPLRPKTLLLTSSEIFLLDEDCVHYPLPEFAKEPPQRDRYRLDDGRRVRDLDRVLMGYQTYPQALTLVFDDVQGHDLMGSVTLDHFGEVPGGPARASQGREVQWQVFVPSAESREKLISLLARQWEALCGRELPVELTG
5-hydroxytryptamine receptor 2B, sequence (P41595 whole entry): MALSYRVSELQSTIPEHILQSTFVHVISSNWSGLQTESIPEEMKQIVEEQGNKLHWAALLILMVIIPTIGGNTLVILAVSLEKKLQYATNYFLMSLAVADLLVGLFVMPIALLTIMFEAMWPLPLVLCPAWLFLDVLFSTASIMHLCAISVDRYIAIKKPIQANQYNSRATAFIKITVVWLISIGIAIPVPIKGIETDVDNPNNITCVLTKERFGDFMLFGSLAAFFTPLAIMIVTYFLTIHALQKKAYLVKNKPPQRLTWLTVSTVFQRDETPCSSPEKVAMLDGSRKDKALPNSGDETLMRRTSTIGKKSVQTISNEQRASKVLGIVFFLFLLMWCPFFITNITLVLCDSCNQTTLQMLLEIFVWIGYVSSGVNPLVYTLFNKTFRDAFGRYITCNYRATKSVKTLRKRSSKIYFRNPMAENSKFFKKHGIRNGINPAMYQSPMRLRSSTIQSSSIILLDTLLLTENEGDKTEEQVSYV
Cannabinoid receptor 1, sequence (P21554 whole entry): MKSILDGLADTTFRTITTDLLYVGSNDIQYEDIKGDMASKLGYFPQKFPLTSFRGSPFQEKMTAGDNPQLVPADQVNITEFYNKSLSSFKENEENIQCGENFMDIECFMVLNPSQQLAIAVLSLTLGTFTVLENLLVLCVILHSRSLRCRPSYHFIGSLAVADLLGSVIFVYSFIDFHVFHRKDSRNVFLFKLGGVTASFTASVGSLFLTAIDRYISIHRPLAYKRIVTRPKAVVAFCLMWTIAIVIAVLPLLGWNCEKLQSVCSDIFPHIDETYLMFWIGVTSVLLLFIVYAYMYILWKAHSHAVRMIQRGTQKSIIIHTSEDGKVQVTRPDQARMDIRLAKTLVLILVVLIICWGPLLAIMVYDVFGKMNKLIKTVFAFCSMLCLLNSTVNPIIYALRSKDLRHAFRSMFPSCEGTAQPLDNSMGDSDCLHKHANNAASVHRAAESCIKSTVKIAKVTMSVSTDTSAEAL
Cannabinoid receptor 2, sequence (P34972 whole entry): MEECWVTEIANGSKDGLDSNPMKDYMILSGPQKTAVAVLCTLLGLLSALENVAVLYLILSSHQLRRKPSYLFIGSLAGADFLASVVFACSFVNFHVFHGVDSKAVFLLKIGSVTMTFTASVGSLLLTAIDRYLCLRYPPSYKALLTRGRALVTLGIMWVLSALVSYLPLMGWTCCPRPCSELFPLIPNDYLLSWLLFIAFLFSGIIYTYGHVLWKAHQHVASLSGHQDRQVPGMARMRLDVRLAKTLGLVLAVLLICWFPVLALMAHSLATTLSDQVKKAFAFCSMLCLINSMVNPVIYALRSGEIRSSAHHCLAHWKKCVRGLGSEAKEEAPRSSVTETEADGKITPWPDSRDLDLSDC
5-hydroxytryptamine receptor 1B, sequence (P28222 whole entry): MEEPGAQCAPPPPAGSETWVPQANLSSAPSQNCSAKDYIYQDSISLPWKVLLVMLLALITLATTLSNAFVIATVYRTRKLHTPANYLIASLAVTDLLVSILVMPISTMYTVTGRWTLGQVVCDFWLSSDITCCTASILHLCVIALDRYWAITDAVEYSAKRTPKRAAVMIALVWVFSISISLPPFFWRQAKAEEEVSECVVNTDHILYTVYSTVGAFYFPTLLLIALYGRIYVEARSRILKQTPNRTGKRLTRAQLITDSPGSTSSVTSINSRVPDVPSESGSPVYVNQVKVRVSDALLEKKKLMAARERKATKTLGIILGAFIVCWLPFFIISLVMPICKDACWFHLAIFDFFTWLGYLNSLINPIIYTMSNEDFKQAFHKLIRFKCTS
Kappa-type opioid receptor, sequence (P41145 whole entry): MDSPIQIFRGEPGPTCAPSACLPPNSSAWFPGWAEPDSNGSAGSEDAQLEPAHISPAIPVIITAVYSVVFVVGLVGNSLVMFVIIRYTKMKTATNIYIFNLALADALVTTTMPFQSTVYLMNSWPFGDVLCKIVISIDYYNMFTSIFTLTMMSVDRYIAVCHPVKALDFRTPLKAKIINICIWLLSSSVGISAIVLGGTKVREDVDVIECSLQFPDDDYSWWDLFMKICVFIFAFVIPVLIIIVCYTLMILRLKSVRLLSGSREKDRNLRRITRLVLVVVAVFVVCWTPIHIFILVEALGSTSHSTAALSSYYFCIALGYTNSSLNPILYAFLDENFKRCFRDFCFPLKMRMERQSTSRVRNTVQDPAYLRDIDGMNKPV
5-hydroxytryptamine receptor 2A, sequence (P28223 whole entry): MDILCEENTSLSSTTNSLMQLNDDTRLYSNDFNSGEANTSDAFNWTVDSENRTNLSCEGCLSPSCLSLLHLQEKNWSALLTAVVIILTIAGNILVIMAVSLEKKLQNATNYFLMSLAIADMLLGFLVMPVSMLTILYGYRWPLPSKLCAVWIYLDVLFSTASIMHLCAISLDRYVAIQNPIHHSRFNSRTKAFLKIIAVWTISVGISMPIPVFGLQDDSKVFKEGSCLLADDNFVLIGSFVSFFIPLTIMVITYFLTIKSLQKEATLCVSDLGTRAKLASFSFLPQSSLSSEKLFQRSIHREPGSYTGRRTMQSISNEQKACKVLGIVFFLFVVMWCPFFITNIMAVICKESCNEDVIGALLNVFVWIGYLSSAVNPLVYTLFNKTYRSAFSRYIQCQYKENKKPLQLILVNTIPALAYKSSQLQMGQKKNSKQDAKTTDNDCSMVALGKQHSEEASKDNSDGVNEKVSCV
D(2) dopamine receptor, sequence (P14416 whole entry): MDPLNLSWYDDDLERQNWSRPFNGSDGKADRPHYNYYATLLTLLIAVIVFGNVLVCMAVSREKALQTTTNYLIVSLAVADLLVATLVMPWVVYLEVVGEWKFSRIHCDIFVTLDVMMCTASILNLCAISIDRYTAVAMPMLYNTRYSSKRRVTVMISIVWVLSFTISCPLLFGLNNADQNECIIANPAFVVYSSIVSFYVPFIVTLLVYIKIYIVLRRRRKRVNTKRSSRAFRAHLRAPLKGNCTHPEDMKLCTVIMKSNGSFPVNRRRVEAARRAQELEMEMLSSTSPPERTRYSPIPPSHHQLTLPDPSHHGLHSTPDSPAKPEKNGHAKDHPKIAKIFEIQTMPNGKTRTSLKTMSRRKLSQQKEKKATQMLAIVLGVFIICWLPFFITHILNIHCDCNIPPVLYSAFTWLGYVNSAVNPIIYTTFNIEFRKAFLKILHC

On to `CCN(CC)C(=O)N[C@H]1C=C2c3cccc4[nH]cc(c34)C[C@H]2N(C)C1` [lisuride, (S)], for which the Ki in experiment [1] was more than 10000 nM; in experiment [2] it was 3.1 nM; in experiment [3] it was more than 10000 nM; in experiment [4], more than 10000 nM; in experiment [5], 77 nM; in [6], more than 10000 nM. The Ki in experiment [7], in experiment [8], in [9], in experiment [10] and in experiment [11] was more than 10000 nM each time.
As for `C[C@@H]1C[C@@H](C)N1C(=O)C1C=C2c3cccc4[nH]cc(c34)C[C@H]2N(C)C1` (some centres not stated) [ss-2c], the Ki in experiment [12] worked out at 0.4 nM; in experiment [13], 2.4 nM; in [14], 276 nM; in experiment [15] it was 19.2 nM; in experiment [16] it was 27 nM; in experiment [2] it was 27.3 nM. In addition, the Ki in experiment [17] was 14.5 nM; in experiment [18] it was 850 nM; in experiment [19] it was 292 nM; in experiment [20] it was 73.6 nM; in experiment [21], 2500 nM.

For the origin of these results see BindingDB's records for PubMed 20126400 (University of Oklahoma, 2010).
